# PubChem BioAssay (NCI)
#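 1) Cells in 96-well plates. 2) Compound, 48 h, 5 concentrations. 3) Linear interpolation between surrounding doses. 4) Unreached endpoint = highest concentration. The concentration for full growth arrest is given as TGI.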
# What was measured:
# Experiment in all cases: inhibition of tumour cell growth, NCI panel, 48 h
# 786-0 renal = test system: 786-0 renal
# A498 renal = test system: A498 renal
# A549 NSCLC = test system: A549 NSCLC
# ACHN renal = test system: ACHN renal
# BT-549 breast = test system: BT-549 breast
# CAKI-1 renal = test system: CAKI-1 renal
# CCRF-CEM leukemia = test system: CCRF-CEM leukemia
# COLO 205 colon = test system: COLO 205 colon
# DU-145 prostate = test system: DU-145 prostate
# EKVX NSCLC = test system: EKVX NSCLC
# HCC-2998 colon = test system: HCC-2998 colon
# HCT-116 colon = test system: HCT-116 colon
# HCT-15 colon = test system: HCT-15 colon
# HL-60(TB) leukemia = test system: HL-60(TB) leukemia
# HOP-62 NSCLC = test system: HOP-62 NSCLC
# HOP-92 NSCLC = test system: HOP-92 NSCLC
# HS 578T breast = test system: HS 578T breast
# HT29 colon = test system: HT29 colon
# IGROV1 ovarian = test system: IGROV1 ovarian
# K-562 leukemia = test system: K-562 leukemia
# KM12 colon = test system: KM12 colon
# LOX IMVI melanoma = test system: LOX IMVI melanoma
# M14 melanoma = test system: M14 melanoma
# MALME-3M melanoma = test system: MALME-3M melanoma
# MCF7 breast = test system: MCF7 breast
# MDA-MB-231 breast = test system: MDA-MB-231 breast
# MDA-MB-435 = test system: MDA-MB-435
# MDA-N = test system: MDA-N
# MOLT-4 leukemia = test system: MOLT-4 leukemia
# NCI-H226 lung = test system: NCI-H226 lung
# NCI-H23 lung = test system: NCI-H23 lung
# NCI-H460 lung = test system: NCI-H460 lung
# NCI-H522 lung = test system: NCI-H522 lung
# NCI/ADR-RES ovarian = test system: NCI/ADR-RES ovarian
# OVCAR-3 ovarian = test system: OVCAR-3 ovarian
# OVCAR-4 ovarian = test system: OVCAR-4 ovarian
# OVCAR-5 ovarian = test system: OVCAR-5 ovarian
# OVCAR-8 ovarian = test system: OVCAR-8 ovarian
# PC-3 prostate = test system: PC-3 prostate
# RPMI-8226 leukemia = test system: RPMI-8226 leukemia
# RXF 393 renal = test system: RXF 393 renal
# SF-268 CNS = test system: SF-268 CNS
# SF-295 CNS = test system: SF-295 CNS
# SF-539 CNS = test system: SF-539 CNS
# SK-MEL-2 melanoma = test system: SK-MEL-2 melanoma
# SK-MEL-28 melanoma = test system: SK-MEL-28 melanoma
# SK-MEL-5 melanoma = test system: SK-MEL-5 melanoma
# SK-OV-3 ovarian = test system: SK-OV-3 ovarian
# SN12C renal = test system: SN12C renal
# SNB-19 CNS = test system: SNB-19 CNS
# SNB-75 CNS = test system: SNB-75 CNS
# SR leukemia = test system: SR leukemia
# SW-620 colon = test system: SW-620 colon
# T-47D breast = test system: T-47D breast
# TK-10 renal = test system: TK-10 renal
# U251 CNS = test system: U251 CNS
# UACC-257 melanoma = test system: UACC-257 melanoma
# UACC-62 melanoma = test system: UACC-62 melanoma
# UO-31 renal = test system: UO-31 renal
# DLD-1 colon = test system: DLD-1 colon
# DMS 114 small cell lung = test system: DMS 114 small cell lung
# DMS 273 small cell lung = test system: DMS 273 small cell lung
# HOP-18 NSCLC = test system: HOP-18 NSCLC
# KM20L2 colon = test system: KM20L2 colon
# LXFL 529 NSCLC = test system: LXFL 529 NSCLC
# M19-MEL melanoma = test system: M19-MEL melanoma
# SNB-78 CNS = test system: SNB-78 CNS
compound,measurement,setting,value
COc1cc2c3c(n(C)c(=O)c2cc1OC)-c1cc2c(cc1C3=O)OCO2,TGI,786-0 renal,> 77.7 µM
same,TGI,A498 renal,> 97 µM
same,TGI,A549 NSCLC,> 100 µM
same,TGI,ACHN renal,> 60.5 µM
same,TGI,BT-549 breast,> 100 µM
same,TGI,CAKI-1 renal,> 53.1 µM
same,TGI,CCRF-CEM leukemia,22.5 µM
same,TGI,COLO 205 colon,> 100 µM
same,TGI,DU-145 prostate,> 100 µM
same,TGI,EKVX NSCLC,> 100 µM
same,TGI,HCC-2998 colon,> 100 µM
same,TGI,HCT-116 colon,> 100 µM
same,TGI,HCT-15 colon,> 100 µM
same,TGI,HL-60(TB) leukemia,> 100 µM
same,TGI,HOP-62 NSCLC,> 55 µM
same,TGI,HOP-92 NSCLC,> 100 µM
same,TGI,HS 578T breast,> 100 µM
same,TGI,HT29 colon,> 100 µM
same,TGI,IGROV1 ovarian,40.9 µM
same,TGI,K-562 leukemia,> 92.2 µM
same,TGI,KM12 colon,> 100 µM
same,TGI,LOX IMVI melanoma,> 73 µM
same,TGI,M14 melanoma,> 100 µM
same,TGI,MALME-3M melanoma,> 100 µM
same,TGI,MCF7 breast,> 100 µM
same,TGI,MDA-MB-231 breast,> 100 µM
same,TGI,MDA-MB-435,> 100 µM
same,TGI,MDA-N,> 100 µM
same,TGI,MOLT-4 leukemia,54.7 µM
same,TGI,NCI-H226 lung,> 100 µM
same,TGI,NCI-H23 lung,37 µM
same,TGI,NCI-H460 lung,> 100 µM
same,TGI,NCI-H522 lung,34.8 µM
same,TGI,NCI/ADR-RES ovarian,> 100 µM
same,TGI,OVCAR-3 ovarian,> 100 µM
same,TGI,OVCAR-4 ovarian,> 100 µM
same,TGI,OVCAR-5 ovarian,> 100 µM
same,TGI,OVCAR-8 ovarian,> 100 µM
same,TGI,PC-3 prostate,> 100 µM
same,TGI,RPMI-8226 leukemia,> 100 µM
same,TGI,RXF 393 renal,> 62.4 µM
same,TGI,SF-268 CNS,> 100 µM
same,TGI,SF-295 CNS,> 61.3 µM
same,TGI,SF-539 CNS,23.9 µM
same,TGI,SK-MEL-2 melanoma,> 72.2 µM
same,TGI,SK-MEL-28 melanoma,> 100 µM
same,TGI,SK-MEL-5 melanoma,> 44.8 µM
same,TGI,SK-OV-3 ovarian,> 100 µM
same,TGI,SN12C renal,> 100 µM
same,TGI,SNB-19 CNS,> 100 µM
same,TGI,SNB-75 CNS,22.6 µM
same,TGI,SR leukemia,11.8 µM
same,TGI,SW-620 colon,> 100 µM
same,TGI,T-47D breast,57.3 µM
same,TGI,TK-10 renal,> 100 µM
same,TGI,U251 CNS,> 100 µM
same,TGI,UACC-257 melanoma,> 100 µM
same,TGI,UACC-62 melanoma,32.4 µM
same,TGI,UO-31 renal,> 100 µM
COc1ccc(NC(=O)CSc2nnc(-c3ccc(NC(C)=O)cc3)o2)cc1,TGI,786-0 renal,39.1 µM
same,TGI,A498 renal,30.2 µM
same,TGI,A549 NSCLC,45.3 µM
same,TGI,ACHN renal,31.1 µM
same,TGI,CCRF-CEM leukemia,> 100 µM
same,TGI,COLO 205 colon,36.8 µM
same,TGI,DLD-1 colon,41 µM
same,TGI,DMS 114 small cell lung,19.3 µM
same,TGI,DMS 273 small cell lung,33.7 µM
same,TGI,EKVX NSCLC,43.4 µM
same,TGI,HCC-2998 colon,35.4 µM
same,TGI,HCT-116 colon,29.4 µM
same,TGI,HCT-15 colon,30.2 µM
same,TGI,HL-60(TB) leukemia,50.9 µM
same,TGI,HOP-18 NSCLC,34.9 µM
same,TGI,HOP-62 NSCLC,68.6 µM
same,TGI,HT29 colon,25.2 µM
same,TGI,IGROV1 ovarian,36.9 µM
same,TGI,K-562 leukemia,> 100 µM
same,TGI,KM12 colon,30 µM
same,TGI,KM20L2 colon,36.8 µM
same,TGI,LOX IMVI melanoma,29.5 µM
same,TGI,LXFL 529 NSCLC,26.7 µM
same,TGI,M14 melanoma,33.8 µM
same,TGI,M19-MEL melanoma,55.7 µM
same,TGI,MALME-3M melanoma,40.8 µM
same,TGI,MOLT-4 leukemia,40.9 µM
same,TGI,NCI-H226 lung,57.8 µM
same,TGI,NCI-H23 lung,23.2 µM
same,TGI,NCI-H460 lung,34 µM
same,TGI,NCI-H522 lung,33.9 µM
same,TGI,OVCAR-3 ovarian,35.5 µM
same,TGI,OVCAR-4 ovarian,30.3 µM
same,TGI,OVCAR-5 ovarian,> 100 µM
same,TGI,OVCAR-8 ovarian,36.6 µM
same,TGI,RXF 393 renal,28.7 µM
same,TGI,SF-268 CNS,34.8 µM
same,TGI,SF-295 CNS,68.5 µM
same,TGI,SK-MEL-2 melanoma,38 µM
same,TGI,SK-MEL-28 melanoma,34.7 µM
same,TGI,SK-MEL-5 melanoma,27.7 µM
same,TGI,SK-OV-3 ovarian,> 100 µM
same,TGI,SN12C renal,41.9 µM
same,TGI,SNB-75 CNS,> 100 µM
same,TGI,SNB-78 CNS,44 µM
same,TGI,TK-10 renal,41.2 µM
same,TGI,U251 CNS,33.7 µM
same,TGI,UACC-257 melanoma,41.7 µM
same,TGI,UACC-62 melanoma,35.2 µM
same,TGI,UO-31 renal,33 µM
CCc1c(O)c(O)c(C(C)=O)c2c(O)c(-c3c(C)cc4c(CC)c(O)c(O)c(C(C)=O)c4c3O)c(C)cc12,TGI,ACHN renal,28.8 µM
same,TGI,CCRF-CEM leukemia,8.64 µM
same,TGI,COLO 205 colon,21.4 µM
same,TGI,DMS 114 small cell lung,18.4 µM
same,TGI,HCT-116 colon,14.3 µM
same,TGI,HL-60(TB) leukemia,14.9 µM
same,TGI,HOP-62 NSCLC,27.4 µM
same,TGI,HOP-92 NSCLC,10.4 µM
same,TGI,HT29 colon,17.1 µM
same,TGI,K-562 leukemia,11.3 µM
same,TGI,KM12 colon,11.7 µM
same,TGI,KM20L2 colon,17.6 µM
same,TGI,LXFL 529 NSCLC,16.5 µM
same,TGI,M14 melanoma,21.6 µM
same,TGI,M19-MEL melanoma,30.8 µM
same,TGI,MALME-3M melanoma,31.5 µM
same,TGI,NCI-H23 lung,16.1 µM
same,TGI,NCI-H460 lung,38.5 µM
same,TGI,NCI-H522 lung,14.8 µM
same,TGI,OVCAR-3 ovarian,18 µM
same,TGI,OVCAR-4 ovarian,26.5 µM
same,TGI,OVCAR-5 ovarian,32.9 µM
same,TGI,RPMI-8226 leukemia,24.2 µM
same,TGI,SF-268 CNS,37.1 µM
same,TGI,SF-295 CNS,11 µM
same,TGI,SF-539 CNS,22.4 µM
same,TGI,SK-MEL-2 melanoma,23 µM
same,TGI,SK-MEL-28 melanoma,27.2 µM
same,TGI,SNB-75 CNS,30.7 µM
same,TGI,SNB-78 CNS,12.1 µM
same,TGI,SR leukemia,> 100 µM
same,TGI,U251 CNS,21.4 µM
same,TGI,UACC-257 melanoma,24.3 µM
same,TGI,UACC-62 melanoma,24.7 µM
same,TGI,UO-31 renal,22.3 µM
CCCC(=O)OC[n+]1ccc2c(C)c3[nH]c4ccccc4c3c(C)c2c1,TGI,CCRF-CEM leukemia,> 100 µM
same,TGI,HL-60(TB) leukemia,> 100 µM
same,TGI,HOP-18 NSCLC,2.99 µM
same,TGI,HT29 colon,> 100 µM
same,TGI,K-562 leukemia,> 100 µM
same,TGI,KM12 colon,1.8 µM
same,TGI,M19-MEL melanoma,> 100 µM
same,TGI,MOLT-4 leukemia,3.04 µM
same,TGI,OVCAR-5 ovarian,2.34 µM
same,TGI,SNB-75 CNS,> 100 µM
same,TGI,SR leukemia,17.5 µM
same,TGI,TK-10 renal,5.5 µM
same,TGI,UO-31 renal,5.59 µM
[N-]=[N+]=NC1(c2ccccc2)C(=O)c2cccc3c2N(CCC3)C1=O (stereo not given),TGI,786-0 renal,> 100 µM
same,TGI,A498 renal,> 100 µM
same,TGI,ACHN renal,> 100 µM
same,TGI,COLO 205 colon,> 100 µM
same,TGI,DMS 114 small cell lung,> 100 µM
same,TGI,HL-60(TB) leukemia,64.5 µM
same,TGI,HOP-62 NSCLC,> 100 µM
same,TGI,HOP-92 NSCLC,> 100 µM
same,TGI,HT29 colon,> 100 µM
same,TGI,IGROV1 ovarian,> 100 µM
same,TGI,K-562 leukemia,89.4 µM
same,TGI,KM12 colon,> 100 µM
same,TGI,KM20L2 colon,> 100 µM
same,TGI,LXFL 529 NSCLC,> 100 µM
same,TGI,M14 melanoma,> 100 µM
same,TGI,M19-MEL melanoma,> 100 µM
same,TGI,MOLT-4 leukemia,> 100 µM
same,TGI,NCI-H23 lung,> 100 µM
same,TGI,NCI-H460 lung,> 100 µM
same,TGI,NCI-H522 lung,> 100 µM
same,TGI,OVCAR-3 ovarian,> 100 µM
same,TGI,OVCAR-4 ovarian,> 100 µM
same,TGI,OVCAR-5 ovarian,> 100 µM
same,TGI,RPMI-8226 leukemia,> 100 µM
same,TGI,RXF 393 renal,> 100 µM
same,TGI,SF-268 CNS,> 100 µM
same,TGI,SF-295 CNS,> 100 µM
same,TGI,SK-MEL-2 melanoma,> 100 µM
same,TGI,SK-MEL-28 melanoma,> 100 µM
same,TGI,SK-OV-3 ovarian,> 100 µM
same,TGI,SNB-19 CNS,> 100 µM
same,TGI,SNB-75 CNS,> 100 µM
same,TGI,SNB-78 CNS,> 100 µM
same,TGI,SR leukemia,> 100 µM
same,TGI,U251 CNS,> 100 µM
same,TGI,UACC-257 melanoma,82.7 µM
same,TGI,UACC-62 melanoma,> 100 µM
same,TGI,UO-31 renal,74.3 µM
